# Laboratory results published in ChEMBL document CHEMBL5465560, “Selectivity Literature for EUbOPEN Chemogenomic Library” (2024).
# Legend:
# [1] = biological target: Protein polybromo-1 (Homo sapiens) (UniProt Q86U86); experiment: Selectivity interaction (Human bromodomain panel (DSF assay)) EUB0000233b PBRM1
# [2] = biological target: T1, Mitogen-activated protein kinase kinase kinase kinase 2 (Homo sapiens) (UniProt Q12851); experiment: Selectivity interaction (KinomeScan (DiscoverX)) EUB0000229b MAP4K2; conditions: at 10 µM
# T1 sequence (whole entry): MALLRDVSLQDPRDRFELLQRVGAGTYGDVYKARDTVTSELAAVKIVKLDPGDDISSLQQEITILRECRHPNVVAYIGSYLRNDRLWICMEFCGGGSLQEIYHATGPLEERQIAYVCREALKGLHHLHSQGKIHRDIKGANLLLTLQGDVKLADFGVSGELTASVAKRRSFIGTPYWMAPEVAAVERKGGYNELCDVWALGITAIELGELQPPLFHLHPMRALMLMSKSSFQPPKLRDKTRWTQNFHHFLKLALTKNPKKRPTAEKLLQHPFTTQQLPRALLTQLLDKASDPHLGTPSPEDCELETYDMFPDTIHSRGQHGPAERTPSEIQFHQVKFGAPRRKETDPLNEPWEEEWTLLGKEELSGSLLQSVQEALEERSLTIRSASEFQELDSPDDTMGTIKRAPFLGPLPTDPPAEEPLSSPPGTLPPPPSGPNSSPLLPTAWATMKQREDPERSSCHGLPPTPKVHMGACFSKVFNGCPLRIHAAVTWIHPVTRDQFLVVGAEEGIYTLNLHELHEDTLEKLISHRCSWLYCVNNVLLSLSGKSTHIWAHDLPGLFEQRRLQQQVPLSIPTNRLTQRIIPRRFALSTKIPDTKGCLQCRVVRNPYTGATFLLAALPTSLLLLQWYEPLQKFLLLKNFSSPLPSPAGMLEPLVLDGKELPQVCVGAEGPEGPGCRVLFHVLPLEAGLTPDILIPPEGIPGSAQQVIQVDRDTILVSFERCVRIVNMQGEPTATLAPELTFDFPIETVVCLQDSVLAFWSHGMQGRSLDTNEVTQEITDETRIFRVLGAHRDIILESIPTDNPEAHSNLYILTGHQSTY
# [3] = biological target: Dual specificity protein kinase CLK2 (Homo sapiens, UniProt P49760); conditions: at 10 µM
# [4] = system: Epidermal growth factor receptor (Homo sapiens), P00533 [UNDEFINED MUTATION]; experiment: Selectivity interaction (ProQinase) EUB0000171b EGFR; conditions: at 1 µM
# [5] = biological target: T2, Mitogen-activated protein kinase kinase kinase 7 (Homo sapiens) (UniProt O43318); experiment: Selectivity interaction (ActivX KiNativ screen (ex vivo kinase selectivity in human PBMCs)) EUB0001619a MAP3K7; format: cell-based; conditions: PBMC, at 1 µM
# T2 sequence (whole entry): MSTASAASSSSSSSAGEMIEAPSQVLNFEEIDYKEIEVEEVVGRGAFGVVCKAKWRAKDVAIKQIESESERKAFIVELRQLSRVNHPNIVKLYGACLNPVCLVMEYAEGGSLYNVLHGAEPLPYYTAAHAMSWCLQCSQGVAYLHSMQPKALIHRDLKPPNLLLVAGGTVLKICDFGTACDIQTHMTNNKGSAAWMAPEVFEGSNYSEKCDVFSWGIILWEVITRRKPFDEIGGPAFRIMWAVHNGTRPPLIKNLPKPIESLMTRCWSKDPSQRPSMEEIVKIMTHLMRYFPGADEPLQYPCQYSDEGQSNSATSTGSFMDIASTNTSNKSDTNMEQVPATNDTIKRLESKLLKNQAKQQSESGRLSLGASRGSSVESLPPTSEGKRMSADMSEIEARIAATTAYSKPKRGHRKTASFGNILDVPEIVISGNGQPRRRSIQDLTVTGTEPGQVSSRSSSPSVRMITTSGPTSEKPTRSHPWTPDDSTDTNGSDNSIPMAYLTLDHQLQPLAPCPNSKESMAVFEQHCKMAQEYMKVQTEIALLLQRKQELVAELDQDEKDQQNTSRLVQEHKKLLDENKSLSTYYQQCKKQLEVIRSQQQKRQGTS
# [6] = biological target: Receptor-type tyrosine-protein kinase FLT3 (Homo sapiens) (UniProt P36888); experiment: Selectivity interaction (KinomeScan (DiscoverX)) EUB0000607a FLT3; conditions: at 10 µM
# [7] = biological target: T3, Ephrin type-B receptor 2 (Homo sapiens) (UniProt P29323); conditions: at 10 µM
# T3 sequence (whole entry): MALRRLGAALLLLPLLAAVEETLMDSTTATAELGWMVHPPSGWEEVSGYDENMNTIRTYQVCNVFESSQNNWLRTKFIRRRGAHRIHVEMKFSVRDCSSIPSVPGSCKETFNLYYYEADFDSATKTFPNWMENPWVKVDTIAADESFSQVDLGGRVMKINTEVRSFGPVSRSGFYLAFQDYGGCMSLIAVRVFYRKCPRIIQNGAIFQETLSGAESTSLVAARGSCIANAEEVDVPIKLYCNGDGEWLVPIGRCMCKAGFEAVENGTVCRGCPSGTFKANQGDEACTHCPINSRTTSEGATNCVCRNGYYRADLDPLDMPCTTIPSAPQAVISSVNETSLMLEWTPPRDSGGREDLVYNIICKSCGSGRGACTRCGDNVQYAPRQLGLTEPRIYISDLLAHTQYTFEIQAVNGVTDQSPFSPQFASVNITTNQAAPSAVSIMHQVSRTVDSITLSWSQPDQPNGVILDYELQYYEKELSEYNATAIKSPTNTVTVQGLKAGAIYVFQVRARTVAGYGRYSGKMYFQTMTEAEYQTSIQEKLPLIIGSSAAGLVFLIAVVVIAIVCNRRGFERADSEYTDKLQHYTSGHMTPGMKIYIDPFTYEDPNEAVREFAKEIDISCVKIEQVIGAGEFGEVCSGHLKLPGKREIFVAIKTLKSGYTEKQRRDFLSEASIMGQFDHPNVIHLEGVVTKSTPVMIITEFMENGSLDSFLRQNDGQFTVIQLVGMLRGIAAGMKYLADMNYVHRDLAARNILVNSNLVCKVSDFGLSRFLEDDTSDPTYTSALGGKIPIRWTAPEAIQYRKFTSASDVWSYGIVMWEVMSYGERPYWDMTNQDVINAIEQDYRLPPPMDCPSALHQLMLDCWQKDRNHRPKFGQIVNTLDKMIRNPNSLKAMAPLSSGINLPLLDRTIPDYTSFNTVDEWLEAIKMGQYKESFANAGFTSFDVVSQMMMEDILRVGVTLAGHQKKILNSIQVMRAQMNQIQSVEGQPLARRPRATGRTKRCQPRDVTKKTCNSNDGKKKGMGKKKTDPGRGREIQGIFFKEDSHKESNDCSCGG
# [8] = biological target: Serine/threonine-protein kinase N2 (Homo sapiens, UniProt Q16513); conditions: at 10 µM
# Sequence of Serine/threonine-protein kinase N2 (Q16513 whole entry, looked up): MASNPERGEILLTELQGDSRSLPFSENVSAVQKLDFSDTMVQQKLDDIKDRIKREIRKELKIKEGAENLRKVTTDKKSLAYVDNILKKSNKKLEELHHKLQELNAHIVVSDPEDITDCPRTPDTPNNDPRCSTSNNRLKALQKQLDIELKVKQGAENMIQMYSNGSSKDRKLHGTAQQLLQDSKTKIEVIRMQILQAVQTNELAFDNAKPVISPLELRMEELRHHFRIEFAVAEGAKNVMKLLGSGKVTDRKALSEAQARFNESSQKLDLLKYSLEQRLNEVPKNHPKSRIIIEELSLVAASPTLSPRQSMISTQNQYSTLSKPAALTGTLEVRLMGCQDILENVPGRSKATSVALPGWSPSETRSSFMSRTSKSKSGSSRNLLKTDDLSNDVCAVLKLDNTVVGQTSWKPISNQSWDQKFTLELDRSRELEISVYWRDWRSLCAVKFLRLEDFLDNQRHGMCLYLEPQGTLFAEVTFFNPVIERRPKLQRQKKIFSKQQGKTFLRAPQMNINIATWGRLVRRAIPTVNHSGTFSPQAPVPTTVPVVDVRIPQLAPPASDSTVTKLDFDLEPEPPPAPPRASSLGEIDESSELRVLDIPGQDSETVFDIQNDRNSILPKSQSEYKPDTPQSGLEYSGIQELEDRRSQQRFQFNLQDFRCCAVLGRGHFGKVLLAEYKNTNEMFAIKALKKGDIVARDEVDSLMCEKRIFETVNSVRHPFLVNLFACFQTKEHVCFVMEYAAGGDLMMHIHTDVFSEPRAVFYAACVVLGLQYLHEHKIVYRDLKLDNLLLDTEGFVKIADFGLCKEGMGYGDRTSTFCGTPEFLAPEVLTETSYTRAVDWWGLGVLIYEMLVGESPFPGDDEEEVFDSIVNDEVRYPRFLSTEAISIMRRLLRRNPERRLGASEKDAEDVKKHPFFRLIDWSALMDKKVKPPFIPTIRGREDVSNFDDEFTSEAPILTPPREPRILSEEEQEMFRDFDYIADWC
# Sequence of Dual specificity protein kinase CLK2 (P49760 whole entry, looked up): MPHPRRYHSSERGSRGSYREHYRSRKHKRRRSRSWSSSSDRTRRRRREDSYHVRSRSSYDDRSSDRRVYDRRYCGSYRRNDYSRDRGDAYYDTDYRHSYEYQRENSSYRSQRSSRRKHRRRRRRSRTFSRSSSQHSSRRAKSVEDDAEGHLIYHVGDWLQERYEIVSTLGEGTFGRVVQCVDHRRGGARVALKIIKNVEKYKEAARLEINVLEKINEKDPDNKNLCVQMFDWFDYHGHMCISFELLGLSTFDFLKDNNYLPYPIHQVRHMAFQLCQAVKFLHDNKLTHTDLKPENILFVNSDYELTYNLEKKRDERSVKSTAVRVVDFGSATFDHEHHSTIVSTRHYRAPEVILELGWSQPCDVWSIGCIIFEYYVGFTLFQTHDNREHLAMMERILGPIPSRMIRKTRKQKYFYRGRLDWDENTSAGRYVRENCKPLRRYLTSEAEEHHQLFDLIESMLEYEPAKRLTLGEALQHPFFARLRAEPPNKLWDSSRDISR
# Sequence of Epidermal growth factor receptor (Homo sapiens), P00533 [UNDEFINED MUTATION] (P00533 whole entry, looked up, change not shown): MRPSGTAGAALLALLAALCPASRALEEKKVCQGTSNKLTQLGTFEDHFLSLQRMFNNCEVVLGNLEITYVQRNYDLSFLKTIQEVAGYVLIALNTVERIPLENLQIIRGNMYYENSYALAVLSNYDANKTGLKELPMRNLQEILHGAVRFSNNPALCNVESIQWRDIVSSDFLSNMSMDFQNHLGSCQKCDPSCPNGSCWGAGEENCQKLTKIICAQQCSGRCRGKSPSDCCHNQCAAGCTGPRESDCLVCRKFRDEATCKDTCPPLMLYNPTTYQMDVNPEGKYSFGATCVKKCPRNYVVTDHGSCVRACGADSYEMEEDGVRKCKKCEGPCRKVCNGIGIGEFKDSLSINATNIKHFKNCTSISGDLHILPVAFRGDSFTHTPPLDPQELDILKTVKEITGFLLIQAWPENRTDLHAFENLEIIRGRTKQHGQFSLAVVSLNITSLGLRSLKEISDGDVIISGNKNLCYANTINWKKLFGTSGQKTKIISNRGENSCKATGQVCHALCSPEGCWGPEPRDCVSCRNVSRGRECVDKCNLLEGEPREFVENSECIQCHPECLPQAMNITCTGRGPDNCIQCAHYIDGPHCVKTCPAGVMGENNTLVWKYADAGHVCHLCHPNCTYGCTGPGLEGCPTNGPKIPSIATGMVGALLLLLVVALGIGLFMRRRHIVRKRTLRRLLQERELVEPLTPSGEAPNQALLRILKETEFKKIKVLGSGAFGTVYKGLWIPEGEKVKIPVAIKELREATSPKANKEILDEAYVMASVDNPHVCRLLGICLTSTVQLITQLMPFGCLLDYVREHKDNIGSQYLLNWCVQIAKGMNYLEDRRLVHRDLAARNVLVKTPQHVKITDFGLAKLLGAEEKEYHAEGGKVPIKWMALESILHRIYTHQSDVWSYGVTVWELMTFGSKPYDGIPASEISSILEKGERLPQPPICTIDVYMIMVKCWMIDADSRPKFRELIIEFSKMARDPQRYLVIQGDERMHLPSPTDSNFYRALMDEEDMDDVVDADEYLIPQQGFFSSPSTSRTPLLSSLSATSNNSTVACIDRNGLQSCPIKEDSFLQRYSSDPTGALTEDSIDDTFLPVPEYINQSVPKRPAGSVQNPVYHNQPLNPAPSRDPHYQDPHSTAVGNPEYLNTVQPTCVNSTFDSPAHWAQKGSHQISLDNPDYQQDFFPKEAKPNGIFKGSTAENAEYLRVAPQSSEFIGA
# Sequence of Receptor-type tyrosine-protein kinase FLT3 (Homo sapiens) (P36888 whole entry): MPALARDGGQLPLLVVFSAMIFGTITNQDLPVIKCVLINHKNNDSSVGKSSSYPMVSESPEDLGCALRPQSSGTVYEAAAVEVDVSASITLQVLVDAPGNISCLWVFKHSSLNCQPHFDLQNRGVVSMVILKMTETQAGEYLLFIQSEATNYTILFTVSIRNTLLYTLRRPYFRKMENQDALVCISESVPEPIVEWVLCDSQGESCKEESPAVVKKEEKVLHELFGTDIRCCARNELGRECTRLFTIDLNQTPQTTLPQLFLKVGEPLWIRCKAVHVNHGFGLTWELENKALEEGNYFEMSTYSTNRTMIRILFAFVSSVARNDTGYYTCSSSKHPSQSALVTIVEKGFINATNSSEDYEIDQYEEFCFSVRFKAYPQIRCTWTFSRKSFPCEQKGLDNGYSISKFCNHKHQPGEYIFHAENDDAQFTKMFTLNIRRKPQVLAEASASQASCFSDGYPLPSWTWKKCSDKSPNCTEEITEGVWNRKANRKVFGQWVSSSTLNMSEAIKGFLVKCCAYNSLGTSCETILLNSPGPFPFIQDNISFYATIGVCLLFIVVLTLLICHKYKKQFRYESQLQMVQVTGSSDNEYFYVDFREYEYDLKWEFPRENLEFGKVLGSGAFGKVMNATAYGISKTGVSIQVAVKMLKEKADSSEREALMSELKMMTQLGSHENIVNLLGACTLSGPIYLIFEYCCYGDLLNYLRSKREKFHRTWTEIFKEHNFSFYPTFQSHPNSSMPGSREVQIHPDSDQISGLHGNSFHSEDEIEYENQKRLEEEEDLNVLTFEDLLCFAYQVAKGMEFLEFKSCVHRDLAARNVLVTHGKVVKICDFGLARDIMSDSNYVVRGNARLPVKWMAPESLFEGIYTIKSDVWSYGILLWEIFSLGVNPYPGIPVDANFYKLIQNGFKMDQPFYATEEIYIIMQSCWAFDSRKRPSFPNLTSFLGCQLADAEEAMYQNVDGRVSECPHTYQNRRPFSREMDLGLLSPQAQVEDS
smiles,measurement,setting,value
CN(C)CCCOc1ccc(-c2cc(NCCCn3cccn3)nc(S(C)(=O)=O)n2)cc1,dTM,[1],< 2 K
COc1cc(N(C)c2ccnc3ccc(C(F)(F)F)cc23)cc(OC)c1OC,% binding,[2],65%
Cc1cc([C@@H](C)Nc2ccccc2C(=O)O)c2nc(N3CCOCC3)cc(=O)n2c1 [AZD-6482],% of control,[3],70%
C=CC(=O)Nc1cccc(C(=O)Nc2ccc(Nc3cc(-c4[nH]c(SC)nc4C)ccn3)cc2)c1,% of control,[4],88%
N#Cc1cccc(-c2c[nH]c3ncnc(N4CCOCC4)c23)c1,% of inhibition,[5],8%
CNC(=O)Nc1ccc(-c2nc(N3CC4CCC(C3)O4)c3cnn(C4CCC5(CC4)OCCO5)c3n2)cc1,% of control,[6],77%
CCN(CC)CCCCNc1ncc2cc(-c3cc(OC)cc(OC)c3)c(NC(=O)NC(C)(C)C)nc2n1,% of control,[7],100%
same,% of control,[8],100%
